One assay has as its system Phakopsora pachyrhizi. Description: Phakopsora pachyrhizi / soybean / leaf disc preventative (Asian soybean rust). The class given is in vivo. The note with it: foliar, 288 h, 200 ppm in the applied formulation, soybean leaf disks, inoculated one day after application, assessed 12 to 14 days after application, vs untreated, read-out: disease control. The method, then:
Leaf disks or leaf segments of various plant species are cut from plants grown in a greenhouse. The cut leaf disks or segments are placed in multiwell plates (24-well format) onto water agar. The leaf disks are sprayed with a test solution before (preventative) or after (curative) inoculation. Compounds to be tested are prepared as DMSO solutions (max. 10 mg/ml) which are diluted to the appropriate concentration with 0.025% Tween20 just before spraying. The inoculated leaf disks or segments are incubated under defined conditions (temperature, relative humidity, light, etc.) according to the respective test system. A single evaluation of disease level is carried out 3 to 14 days after inoculation, depending on the pathosystem. Percent disease control relative to the untreated check leaf disks or segments is then calculated.
Soybean leaf disks are placed on water agar in multiwell plates (24-well format) and sprayed with the formulated test compound diluted in water. One day after application leaf discs are inoculated by spraying a spore suspension on the lower leaf surface. After an incubation period in a climate cabinet of 24-36 hours in darkness at 20° C. and 75% rh leaf disc are kept at 20° C. with 12 h light/day and 75% rh. The activity of a compound is assessed as percent disease control compared to untreated when an appropriate level of disease damage appears in untreated check leaf disks (12 to 14 days after application).
The following compounds at 200 ppm in the applied formulation give at least 80% disease control in this test when compared to untreated control leaf disks under the same conditions, which show extensive disease development.

Assay [1] has as its system Glomerella Lagenarium (Colletotrichum Lagenarium). Description: Glomerella lagenarium (Colletotrichum lagenarium) liquid culture / cucumber / preventative (anthracnose). Format: cell-based. The conditions noted are these: Colletotrichum orbiculare; 20 ppm in the applied formulation; liquid culture in PDB, 24° C., inhibition of growth measured photometrically 3 to 4 days after application, vs untreated; read-out: disease control. In outline:
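Conidia from cryogenic storage were mixed into potato dextrose broth. This was added to compound diluted from DMSO into 0.025% Tween20, tested at 20 ppm. Plates were incubated in the dark at 24 °C and 96% relative humidity, and growth was read photometrically after 2–7 days as % activity versus untreated check.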

SMILES strings stand for the structures.

Turning to `CC(=O)c1cccn1Cc1ccc(-c2noc(C(F)(F)F)n2)cc1` [Compound 1.59, 1-[1-[[4-[5-(trifluoromethyl)-1,2,4-oxadiazol-3-yl]phenyl]methyl]pyrrol-2-yl]ethanone], the pest or weed control at 200 ppm with Phakopsora pachyrhizi is at least 80%. Moreover, the inhibition of growth at 20 ppm in assay [1] was at least 80%. `FC(F)(F)c1nc(-c2ccc(Cn3nnnc3-c3ccccc3Br)cc2)no1` [Compound 1.152, 3-[4-[[5-(2-bromophenyl)tetrazol-1-yl]methyl]phenyl]-5-(trifluoromethyl)-1,2,4-oxadiazole]: in the assay with Phakopsora pachyrhizi, the pest or weed control at 200 ppm was at least 80%. In addition, the inhibition of growth at 20 ppm in assay [1] is at least 80%. Consider `FC(F)(F)c1nc(-c2ccc(Cn3nnc4cc(Cl)c(Oc5ccc6c(c5)OCO6)cc43)cc2)no1` [Compound 1.177, 3-[4-[[6-(1,3-benzodioxol-5-yloxy)-5-chloro-benzotriazol-1-yl]methyl]phenyl]-5-(trifluoromethyl)-1,2,4-oxadiazole], for which the pest or weed control at 200 ppm in the assay with Phakopsora pachyrhizi is at least 80%. `CCOC(=O)c1ccc2c(c1)nnn2Cc1ccc(-c2noc(C(F)(F)F)n2)cc1` [Compound 1.184, ethyl 1-[[4-[5-(trifluoromethyl)-1,2,4-oxadiazol-3-yl]phenyl]methyl]benzotriazole-5-carboxylate]: in the assay on Phakopsora pachyrhizi, the pest or weed control at 200 ppm is at least 80%. Further, in assay [1], the inhibition of growth at 20 ppm is at least 80%. Regarding `CCOC(=O)c1ccc2nn(Cc3ccc(-c4noc(C(F)(F)F)n4)cc3)nc2c1` [Compound 1.185, ethyl 2-[[4-[5-(trifluoromethyl)-1,2,4-oxadiazol-3-yl]phenyl]methyl]benzotriazole-5-carboxylate], in the assay with Phakopsora pachyrhizi, the pest or weed control at 200 ppm was at least 80%. In assay [1], the inhibition of growth at 20 ppm was at least 80%. On to `CCOC(=O)c1cc(C2CC2)nn1Cc1ccc(-c2noc(C(F)(F)F)n2)cc1` [Compound 1.187, ethyl 5-cyclopropyl-2-[[4-[5-(trifluoromethyl)-1,2,4-oxadiazol-3-yl]phenyl]methyl]pyrazole-3-carboxylate], for which the pest or weed control at 200 ppm in the assay with Phakopsora pachyrhizi was at least 80%. Regarding `Cc1nc2ccc(C(F)(F)F)cc2n1Cc1ccc(-c2noc(C(F)(F)F)n2)cc1` [Compound 1.190, 3-[4-[[2-methyl-6-(trifluoromethyl)benzimidazol-1-yl]methyl]phenyl]-5-(trifluoromethyl)-1,2,4-oxadiazole], the pest or weed control at 200 ppm in the assay on Phakopsora pachyrhizi was at least 80%. The inhibition of growth at 20 ppm in assay [1] is at least 80%. For `N#Cc1nn(Cc2ccc(-c3noc(C(F)(F)F)n3)cc2)c2cc(F)ccc12` [Compound 1.194, 6-fluoro-1-[[4-[5-(trifluoromethyl)-1,2,4-oxadiazol-3-yl]phenyl]methyl]indazole-3-carbonitrile], the pest or weed control at 200 ppm in the assay with Phakopsora pachyrhizi is at least 80%. In assay [1], the inhibition of growth at 20 ppm was at least 80%. Regarding `FC(F)(F)c1cc(Cl)c2nnn(Cc3ccc(-c4noc(C(F)(F)F)n4)cc3)c2c1` [Compound 1.195, 3-[4-[[4-chloro-6-(trifluoromethyl)benzotriazol-1-yl]methyl]phenyl]-5-(trifluoromethyl)-1,2,4-oxadiazole], the pest or weed control at 200 ppm in the assay with Phakopsora pachyrhizi was at least 80%. Regarding `Cc1ccc2c(nnn2Cc2ccc(-c3noc(C(F)(F)F)n3)cc2)c1C` [Compound 1.198, 3-[4-[(4,5-dimethylbenzotriazol-1-yl)methyl]phenyl]-5-(trifluoromethyl)-1,2,4-oxadiazole], the pest or weed control at 200 ppm in the assay with Phakopsora pachyrhizi was at least 80%. For the same compound, in assay [1], the inhibition of growth at 20 ppm was at least 80%. Consider `Cc1ccc(-c2nnnn2Cc2ccc(-c3noc(C(F)(F)F)n3)cc2)cc1` [Compound 1.201, 3-[4-[[5-(p-tolyl)tetrazol-1-yl]methyl]phenyl]-5-(trifluoromethyl)-1,2,4-oxadiazole], for which the pest or weed control at 200 ppm with Phakopsora pachyrhizi was at least 80%. Same read-out and setting: for `FC(F)(F)c1nc(-c2ccc(Cn3nnnc3-c3ccc(Cl)cc3)cc2)no1` [Compound 1.230, 3-[4-[[5-(4-chlorophenyl)tetrazol-1-yl]methyl]phenyl]-5-(trifluoromethyl)-1,2,4-oxadiazole] the value was at least 80%.

These data come from US10798941B2, “Microbiocidal oxadiazole derivatives” (SYNGENTA PARTICIPATIONS AG, priority 2016, dated 2020).
